Laboratory results from ChEMBL document CHEMBL1138906, “Development of sulfonamide compounds as potent methionine aminopeptidase type II inhibitors with antiproliferative properties” (Bioorg Med Chem Lett, 2006).

Legend:
[1] = tested on: HMEC; test: cells; conditions: Homo sapiens
Description: Antiproliferative activity against HMVEC

[2] = Protein binding in rat plasma at 10 uM at pH 7.4; assay type: ADME, cell-free; conditions: read-out: PPB (converted)
[3] = biological target: T1, Methionine aminopeptidase 2 (Homo sapiens, UniProt P50579); test: Inhibition of MetAP2
T1 sequence (P50579 whole entry): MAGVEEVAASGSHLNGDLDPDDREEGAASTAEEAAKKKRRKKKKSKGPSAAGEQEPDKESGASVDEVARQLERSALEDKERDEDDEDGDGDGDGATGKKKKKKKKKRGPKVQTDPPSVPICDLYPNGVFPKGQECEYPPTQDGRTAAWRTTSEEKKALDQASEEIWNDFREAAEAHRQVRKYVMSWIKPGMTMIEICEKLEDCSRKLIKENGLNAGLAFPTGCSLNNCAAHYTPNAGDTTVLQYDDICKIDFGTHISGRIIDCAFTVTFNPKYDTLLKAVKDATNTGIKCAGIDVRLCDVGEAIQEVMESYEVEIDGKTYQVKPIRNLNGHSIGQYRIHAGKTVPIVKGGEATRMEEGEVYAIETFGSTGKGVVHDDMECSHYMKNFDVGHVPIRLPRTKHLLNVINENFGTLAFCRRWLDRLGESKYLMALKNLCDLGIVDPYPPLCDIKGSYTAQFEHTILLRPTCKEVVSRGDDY

[4] = biological target: T1, Methionine aminopeptidase 2; test: Inhibition of MetAP2 in presence of 40 mg/ml human serum albumin
[5] = biological target: Methionine aminopeptidase 1 (Homo sapiens, UniProt P53582); test: Inhibition of MetAP1
[6] = biological target: Methionine aminopeptidase (Pyrococcus furiosus (strain ATCC 43587 / DSM 3638 / JCM 8422 / Vc1), UniProt P56218); test: Inhibition of Pyrococcus furiosus MetAP
Sequence of Methionine aminopeptidase (P56218 whole entry): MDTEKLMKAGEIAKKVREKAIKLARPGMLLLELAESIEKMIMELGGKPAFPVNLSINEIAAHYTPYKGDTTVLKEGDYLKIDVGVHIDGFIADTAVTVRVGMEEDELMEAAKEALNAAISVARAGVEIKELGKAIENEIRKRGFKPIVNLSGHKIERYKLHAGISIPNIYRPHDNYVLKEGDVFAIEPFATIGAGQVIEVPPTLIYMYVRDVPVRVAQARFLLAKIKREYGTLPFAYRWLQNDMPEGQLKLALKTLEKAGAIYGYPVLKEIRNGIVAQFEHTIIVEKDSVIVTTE

[7] = Inhibition of AP; parameters: species or system Homo sapiens
[8] = biological target: Xaa-Pro aminopeptidase 1 (Homo sapiens, UniProt Q9NQW7); test: Inhibition of AP1
Sequence of Xaa-Pro aminopeptidase 1 (Q9NQW7 whole entry): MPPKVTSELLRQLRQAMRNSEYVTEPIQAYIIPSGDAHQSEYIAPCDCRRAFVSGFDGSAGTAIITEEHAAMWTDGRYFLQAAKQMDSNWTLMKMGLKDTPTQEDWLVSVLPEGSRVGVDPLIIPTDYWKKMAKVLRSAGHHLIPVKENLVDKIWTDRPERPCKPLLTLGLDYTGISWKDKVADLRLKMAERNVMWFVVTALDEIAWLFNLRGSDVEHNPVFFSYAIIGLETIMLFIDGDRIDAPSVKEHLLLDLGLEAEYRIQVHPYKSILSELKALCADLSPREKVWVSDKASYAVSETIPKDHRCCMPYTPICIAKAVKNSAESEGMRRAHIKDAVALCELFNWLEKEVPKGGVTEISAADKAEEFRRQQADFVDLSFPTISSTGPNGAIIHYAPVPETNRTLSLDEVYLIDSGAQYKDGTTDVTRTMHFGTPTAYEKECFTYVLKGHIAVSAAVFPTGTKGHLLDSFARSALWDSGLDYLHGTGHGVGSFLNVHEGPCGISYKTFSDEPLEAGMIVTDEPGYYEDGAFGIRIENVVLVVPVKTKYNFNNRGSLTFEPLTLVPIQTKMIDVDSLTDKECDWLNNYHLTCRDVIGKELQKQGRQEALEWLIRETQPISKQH

[9] = biological target: Aminopeptidase N (Homo sapiens, UniProt P15144); test: Inhibition of AP-M
Sequence of Aminopeptidase N (P15144 whole entry): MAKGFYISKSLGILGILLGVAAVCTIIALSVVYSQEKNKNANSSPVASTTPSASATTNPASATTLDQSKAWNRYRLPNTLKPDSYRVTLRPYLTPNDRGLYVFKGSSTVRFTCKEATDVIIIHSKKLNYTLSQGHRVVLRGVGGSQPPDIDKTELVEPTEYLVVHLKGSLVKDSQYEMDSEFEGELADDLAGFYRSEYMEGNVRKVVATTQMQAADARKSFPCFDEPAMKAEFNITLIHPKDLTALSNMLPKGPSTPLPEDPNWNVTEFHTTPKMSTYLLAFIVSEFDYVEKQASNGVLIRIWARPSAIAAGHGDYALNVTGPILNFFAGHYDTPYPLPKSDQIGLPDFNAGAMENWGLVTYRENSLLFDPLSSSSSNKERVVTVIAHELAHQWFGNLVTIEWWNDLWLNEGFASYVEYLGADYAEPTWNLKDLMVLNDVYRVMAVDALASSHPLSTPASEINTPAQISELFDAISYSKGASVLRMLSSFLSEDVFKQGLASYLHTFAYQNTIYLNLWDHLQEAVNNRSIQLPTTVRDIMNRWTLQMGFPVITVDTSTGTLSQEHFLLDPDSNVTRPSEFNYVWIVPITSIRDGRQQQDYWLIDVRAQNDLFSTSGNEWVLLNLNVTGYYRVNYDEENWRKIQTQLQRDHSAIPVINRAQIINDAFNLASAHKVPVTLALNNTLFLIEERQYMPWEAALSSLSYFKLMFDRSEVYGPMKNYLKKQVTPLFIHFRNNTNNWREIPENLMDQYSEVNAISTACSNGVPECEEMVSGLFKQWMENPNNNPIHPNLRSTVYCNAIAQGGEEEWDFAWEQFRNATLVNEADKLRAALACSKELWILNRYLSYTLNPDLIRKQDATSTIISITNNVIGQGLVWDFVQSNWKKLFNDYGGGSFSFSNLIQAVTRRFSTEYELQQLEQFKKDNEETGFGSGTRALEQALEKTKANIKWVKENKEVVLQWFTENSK

Compound	IC50 [1] [nM]	fraction unbound at 10 µM [2]	further results
CCCc1ccc(NS(=O)(=O)c2ccccc2)c(C(=O)O)c1	60000		
Cc1cc(C)c(NS(=O)(=O)c2ccccc2)c(C(=O)O)c1	400		
Cc1ccc(NS(=O)(=O)c2ccc(Cl)cc2)c(C(=O)O)c1	300	0.019	
C[C@H]1CCCc2ccc(NS(=O)(=O)c3ccc(F)cc3)c(C(=O)O)c21	130		
O=C(O)c1c(NS(=O)(=O)c2ccc(F)cc2)ccc2ccccc12	500	0.008	
O=C(O)c1cc(Br)ccc1NS(=O)(=O)c1ccc(Cl)cc1	3000		
CC1=CCCc2ccc(NS(=O)(=O)c3ccc(F)cc3)c(C(=O)O)c21	150		
CCc1ccc(NS(=O)(=O)c2ccccc2)c(C(=O)O)c1	10000	0.002	
O=C(O)c1c(NS(=O)(=O)c2ccccc2)ccc2ccccc12	500	0.002	IC50 [3]: 19 nM; IC50 [4]: 3800 nM; IC50 [5]: 47000 nM; IC50 [6]: > 100000 nM; IC50 [7]: > 100000 nM; IC50 [8]: > 100000 nM; IC50 [9]: > 100000 nM
O=C(O)c1cc(Br)ccc1NS(=O)(=O)c1cccc2nsnc12	2000		IC50 [3]: 3900 nM; IC50 [4]: > 100000 nM
Cc1ccc(NS(=O)(=O)c2ccccc2)c(C(=O)O)c1	100	0.003	
O=C(O)c1c(NS(=O)(=O)c2ccc(F)cc2)ccc2c1CCCC2	180		
CCCCc1ccc(NS(=O)(=O)c2ccccc2)c(C(=O)O)c1	100000		
